Series [1] can be described thus: Approximate solubility limit in Alpha MEM culture medium containing 5% fetal calf serum. It counts as physicochemical. The conditions noted are these: dilution from DMSO stock solutions; for solubility: plasma or biological fluid, kinetic from dmso stock.
The next series deals with HT29 cells. Kind of series: TPZ potentiation test: IC50 of TPZ with and without potentiator, anoxic HT29 cells. It is filed as cell-based, human. The following applies: 4 hr anoxic exposure of HT29 cells.
The subject of series [2] is HT29 colon carcinoma cells. Kind of series: IC50 assay of potentiator alone, HT29 cells, 4 hr anoxic exposure, sulphorhodamine B staining. The following applies: cell density by sulphorhodamine B five days after washing out. It counts as cell-based, human. (In general: Sulforhodamine B stains cellular protein and so reports cell mass.)
[3] abbreviates: Homo sapiens, HT-29, 4 hr exposure under anoxic conditions.
[4] abbreviates: conc of potentiator 3 mM (compound 56: approximate, slight precipitation).

We go through 29 compounds from patent US20040192686A1, “Benzoazine mono-N-oxides and benzoazine 1,4 dioxides and compositions therefrom for the therapeutic use in cancer treatments” (Auckland Uniservices Limited, priority 2003, published 2004).

Converted amounts (≈) assume the structure as drawn. Where only a bound is given, the exact number is not on record here.

The term solubility denotes the dissolved amount per volume that the medium holds. The term IC50 denotes the point on the concentration scale where inhibition reaches its midpoint. As to `N#CCNc1nc2ccccc2[n+]([O-])n1` [Compound 25, 2-[(1-Oxido-1,2,4-benzotriazin-3-yl)amino]acetonitrile], the concentration in solution in series [1] (solubility) was 300 µM (≈ 60.4 µg/mL). For the same compound, the “TPR (TPZ potentiation ratio) = TPZ IC50 without potentiator/TPZ IC50 with potentiator” value in the series with HT29 cells (conc of potentiator 0.2 mM) amounted to 1.9. Moreover, the IC50 in series [2] (setting [3]) is above 300 µM.

On to `CN(C)CCNc1nc2ccccc2[n+]([O-])n1` [Compound 37, N^1,N^1-Dimethyl-N^2-(1-oxido-1,2,4-benzotriazin-3-yl)-1,2-ethanediamine], for which the concentration in solution in series [1] (solubility) was 1000 µM (≈ 233 µg/mL). Besides, the “TPR (TPZ potentiation ratio) = TPZ IC50 without potentiator/TPZ IC50 with potentiator” value in the series with HT29 cells (conc of potentiator 1.0 mM) amounted to 13.9. For the same compound, in series [2] (setting [3]), the IC50 is above 1000 µM. `CN(C)CCCNc1nc2ccccc2[n+]([O-])n1` [Compound 44, N^1-(1-Oxido-1,2,4-benzotriazin-3-yl)-N^3,N^3-dimethyl-1,3-propan diamin] yielded a Solubility limit in series [1] of 3000 µM (≈ 742 µg/mL). Also, in the series with HT29 cells (conc of potentiator 0.3 mM), the “TPR (TPZ potentiation ratio) = TPZ IC50 without potentiator/TPZ IC50 with potentiator” value is listed as 1.2. In addition, the IC50 in series [2] (4 hr exposure under anoxic conditions) was 830 µM. As to `CCc1nc2ccccc2[n+]([O-])n1` [Compound 56, 3-Ethyl-1,2,4-benzotriazine 1-oxide], the concentration in solution in series [1] (solubility) was 3000 µM (≈ 526 µg/mL). In addition, the “TPR (TPZ potentiation ratio) = TPZ IC50 without potentiator/TPZ IC50 with potentiator” value in the series on HT29 cells (setting [4]) was 1.3. In addition, the IC50 in series [2] (setting [3]) was above 3000 µM. The corresponding values for `[O-][n+]1nc(CCO)nc2ccccc21` [Compound 61, 3-(2-Hydroxyethyl)-1,2,4-benzotriazine 1-oxide] are 3000 µM (≈ 574 µg/mL), 1.2 and above 3000 µM. By melting point is commonly meant the temperature, or range, at which the solid turns liquid. Consider `[O-][n+]1nc(NCCN2CCCCC2)nc2cc(Cl)ccc21` [Compound 135, 6-Chloro-N-[2-(1-piperidinyl)ethyl]-1,2,4-benzotriazin-3-amine 1-Oxide], for which the melting point was 178 to 181 °C. Take `CCN(CC)CCNc1nc2cc(C)ccc2[n+]([O-])n1` [Compound 137, N^1,N^1-Diethyl-N^2-(6-methyl-1-oxido-1,2,4-benzotriazin-3-yl)-1,2-ethanediamine]: the melting point lay within 78 to 80 °C. In turn, `Cc1ccc2c(c1)nc(NCCN1CCOCC1)n[n+]2[O-]` [Compound 138, 6-Methyl-N-[2-(4-morpholinyl)ethyl]-1,2,4-benzotriazin-3-amine 1-Oxide] had a melting point of 182 to 184 °C. Still for that read-out and setting: the result for `Cc1ccc2c(c1)nc(NCCCN1CCOCC1)n[n+]2[O-]` [Compound 139, 6-Methyl-N-[3-(4-morpholinyl)propyl]-1,2,4-benzotriazin-3-amine 1-Oxide] reads 131 to 132 °C. The same measure, in the same setting: the result for `CCCN(CCC)CCNc1nc2cc(C)ccc2[n+]([O-])n1` [Compound 140, N^1-(6-Methyl-1-oxido-1,2,4-benzotriazin-3-yl)-N^2,N^2-dipropyl-1,2-ethanediamine] reads 88 to 90 °C; that for `COc1ccc2c(c1)nc(NCCN1C(C)CCCC1C)n[n+]2[O-]` (stereo not drawn) [Compound 141, N-[2-(2,6-Dimethyl-1-piperidinyl)ethyl]-6-methoxy-1,2,4-benzotriazin-3-amine 1-oxide], 170 to 171 °C; that for `[O-][n+]1nc(Cl)nc2cc(C(F)(F)F)ccc21` [Compound 142, 3-Chloro-6-trifluoromethyl-1,2,4-benzotriazine 1-Oxide], 118 to 120 °C. Still for that read-out and setting: the result for `CC(C)c1ccc2c(c1)nc(NCCN(C)C)n[n+]2[O-]` [Compound 147, N^1-(6-Isopropyl-1-oxido-1,2,4-benzotriazin-3-yl)-N^2,N^2-dimethyl-1,2-ethanediamine] reads 87 to 89 °C; that for `CCN(CC)CCNc1nc2cc(C(C)C)ccc2[n+]([O-])n1` [Compound 148, N^1-(6-Isopropyl-1-oxido-1,2,4-benzotriazin-3-yl)-N^2,N^2-diethyl-1,2-ethanediamine], 60 to 62 °C.

Turning to `CC(C)c1ccc2c(c1)nc(NCCN1CCOCC1)n[n+]2[O-]` [Compound 149, 6-Isopropyl-N-[2-(4-morpholinyl)ethyl]-1,2,4-benzotriazin-3-amine 1-Oxide], the melting point lay in the range of 145 to 147 °C. Same read-out and setting: the result for `CC(C)c1ccc2c(c1)nc(NCCN1CCCCC1)n[n+]2[O-]` [Compound 150, 6-Isopropyl-N-[2-(1-piperidinyl)ethyl]-1,2,4-benzotriazin-3-amine 1-Oxide] reads 124 to 127 °C; that for `CCCN(CCC)CCNc1nc2cc(C(C)C)ccc2[n+]([O-])n1` [Compound 151, N^1-(6-Isopropyl-1-oxido-1,2,4-benzotriazin-3-yl)-N^2,N^2-dipropyl-1,2-ethanediamine], 79 to 81 °C. Still for that read-out and setting: next, `CC(C)(C)c1ccc2c(c1)nc(N)n[n+]2[O-]` [Compound 153, 6-tert-Butyl-1,2,4-benzotriazin-3-amine 1-Oxide]: 209 to 212 °C; `CC(C)(C)c1ccc2c(c1)nc(Cl)n[n+]2[O-]` [Compound 154, 6-tert-Butyl-3-chloro-1,2,4-benzotriazine 1-oxide]: 91 to 94 °C; `CN(C)CCNc1nc2cc(C(C)(C)C)ccc2[n+]([O-])n1` [Compound 155, N^1-(6-tert-Butyl-1-oxido-1,2,4-benzotriazin-3-yl)-N^2,N^2-dimethyl-1,2-ethanediamine]: 140 to 144 °C. `CC(C)(C)c1ccc2c(c1)nc(NCCN1CCOCC1)n[n+]2[O-]` [Compound 157, 6-tert-Butyl-N-[2-(4-morpholinyl)ethyl]-1,2,4-benzotriazin-3-amine 1-Oxide] yielded a melting point of 132 to 134 °C. On the same count and under the same terms, next, `CC(C)(C)c1ccc2c(c1)nc(NCCN1CCCCC1)n[n+]2[O-]` [Compound 158, 6-tert-Butyl-N-[2-(1-piperidinyl)ethyl]-1,2,4-benzotriazin-3-amine 1-Oxide]: 145 to 148 °C; `CCc1nc2cc(F)ccc2[n+]([O-])n1` [Compound 160, 3-Ethyl-6-fluoro-1,2,4-benzotriazine 1-oxide]: 122 to 124 °C. On the same count and under the same terms, the result for `CCN(CC)CCNc1nc2cccc(C)c2[n+]([O-])n1` [Compound 162, N^1,N^1-Diethyl-N^2-(8-methyl-1-oxido-1,2,4-benzotriazin-3-yl)-1,2-ethanediamine] reads 89 to 91 °C; that for `Cc1cccc2nc(NCCN3CCOCC3)n[n+]([O-])c12` [Compound 163, 8-Methyl-N-[2-(4-morpholinyl)ethyl]-1,2,4-benzotriazin-3-amine 1-Oxide], 168 to 170 °C. Same read-out and setting: the result for `Cc1cccc2nc(NCCN3C(C)CCCC3C)n[n+]([O-])c12` (stereo not drawn) [Compound 164, N-[2-(2,6-Dimethyl-1-piperidinyl)ethyl]-8-methyl-1,2,4-benzotriazin-3-amine 1-Oxide] reads 169 to 171 °C. With `CCCN(CCC)CCNc1nc2cccc(C)c2[n+]([O-])n1` [Compound 165, N^1-(8-Methyl-1-oxido-1,2,4-benzotriazin-3-yl)-N^2,N^2-dipropyl-1,2-ethanediamine], the melting point was in the range of 91 to 93 °C.

Consider `CCN(CC)CCNc1nc2cc(C)c(C)cc2[n+]([O-])n1` [Compound 166, N^1-(6,7-Dimethyl-1-oxido-1,2,4-benzotriazin-3-yl)-N^2,N^2-diethyl-1,2-ethanediamine], for which the melting point is 130 to 132 °C. For `Cc1cc2nc(NCCN3CCOCC3)n[n+]([O-])c2cc1C` [Compound 167, 6,7-Dimethyl-N-[2-(4-morpholinyl)ethyl]-1,2,4-benzotriazi n-3-amine 1-Oxide], the melting point is 211 to 213 °C.
